Several values for one entry are separate records, joined by “and”; a condition that tells them apart may be missing. Equal values may be shown once. Where a name gives a salt, the structure may show the parent alone. Read-outs that look alike come from different tables or passages of the source.
Key:
Bcl-w = molecular target: Bcl-w; set-up: method as in library vendor description; details: ref library vendor description; cited from earlier work
[1] = system: Toxoplasma gondii RH-2F tachyzoites; test: microbe, parasite or virus in culture; details: 72 h
Flt = system: Flt; set-up: method as in S-inhibitor; details: ref S-inhibitor; cited from earlier work
VEGFR2 = system: VEGFR2; set-up: method as in S-inhibitor; details: ref S-inhibitor; cited from earlier work
EGFR = system: EGFR; set-up: method as in S-inhibitor; details: ref S-inhibitor; cited from earlier work
HER2/ErbB2 = system: HER2/ErbB2; set-up: method as in S-inhibitor; details: ref S-inhibitor; cited from earlier work
CB2 = molecular target: CB2; set-up: method as in S-inhibitor; details: ref S-inhibitor; cited from earlier work
CDK5/p35 = details: read-out: IC50, CDK5/p35; ref S-inhibitor; cited from earlier work
CDK6/Cyclin D3 = details: read-out: IC50, CDK6/Cyclin D3; ref S-inhibitor; cited from earlier work
CDK4/cyclin D1 = details: read-out: IC50, CDK4/Cyclin D1; ref S-inhibitor; cited from earlier work
CDK1/cyclin B = system: CDK1/cyclin B; set-up: method as in S-inhibitor; details: ref S-inhibitor; cited from earlier work
CDK3/Cyclin E = details: read-out: IC50, CDK3/Cyclin E; ref S-inhibitor; cited from earlier work
MEK1 = system: MEK1; set-up: method as in library vendor description; details: ref library vendor description; cited from earlier work
LPDE4 = system: LPDE4; set-up: method as in S-inhibitor; details: ref S-inhibitor; cited from earlier work
HPDE4 = system: HPDE4; set-up: method as in S-inhibitor; details: ref S-inhibitor; cited from earlier work
HCV NS5A = system: HCV NS5A; set-up: method as in S-inhibitor; details: ref S-inhibitor; cited from earlier work
hSGLT2 = details: read-out: EC50, hSGLT2; ref S-inhibitor; cited from earlier work
ROCK2 = system: ROCK2; set-up: method as in S-inhibitor; details: ref S-inhibitor; cited from earlier work
ROCK1 = system: ROCK1; set-up: method as in S-inhibitor; details: ref S-inhibitor; cited from earlier work
[2] = molecular target: PLK1 (Polo-like kinase 1); set-up: method as in S-inhibitor; details: ref S-inhibitor; cited from earlier work
Aurora B = system: Aurora B; set-up: method as in S-inhibitor; details: ref S-inhibitor; cited from earlier work
[3] = molecular target: T. brucei Aurora kinase-1 (TbAUK1); set-up: method as in S-inhibitor; details: ref S-inhibitor; cited from earlier work
p38 MAPK = system: p38 MAPK; set-up: method as in S-inhibitor; details: ref S-inhibitor; cited from earlier work
BACE1 = system: BACE1; set-up: method as in S-inhibitor; details: two values given; ref S-inhibitor; cited from earlier work
Aβ secretion = system: Aβ secretion; set-up: method as in S-inhibitor; details: ref S-inhibitor; read-out: EC50, decrease of Aβ secretion; cited from earlier work
HSP90β = system: HSP90β; set-up: method as in S-inhibitor; details: ref S-inhibitor; cited from earlier work
in vitro = details: human, Host viability (%) mean
Aurora C = system: Aurora C; set-up: method as in S-inhibitor; details: ref S-inhibitor; cited from earlier work
CDK5 = system: CDK5; set-up: method as in S-inhibitor; details: ref S-inhibitor; cited from earlier work
CDK2 = system: CDK2; set-up: method as in S-inhibitor; details: ref S-inhibitor; cited from earlier work
CDK7 = system: CDK7; set-up: method as in S-inhibitor; details: ref S-inhibitor; cited from earlier work
PI3Kγ = details: read-out: IC50, PI3Kγ; ref S-inhibitor; cited from earlier work
some cell lines = system: some cell lines; set-up: method as in S-inhibitor; details: ref S-inhibitor; cited from earlier work
MAO-B = system: MAO-B; set-up: method as in S-inhibitor; details: ref S-inhibitor; cited from earlier work
v-Abl = system: v-Abl; set-up: method as in library vendor description; details: ref library vendor description; cited from earlier work
Flk-1/KDR = molecular target: Flk-1/KDR; set-up: method as in S-inhibitor; details: ref S-inhibitor; cited from earlier work
PDGFRβ = molecular target: PDGFRβ; set-up: method as in S-inhibitor; details: ref S-inhibitor; cited from earlier work
[4] = system: HCV NS3-4A serine protease; set-up: method as in S-inhibitor; details: ref S-inhibitor; cited from earlier work
ROCK = system: ROCK; set-up: method as in S-inhibitor; details: ref S-inhibitor; cited from earlier work
Aminopeptidase N = molecular target: Aminopeptidase N; set-up: method as in S-inhibitor; details: ref S-inhibitor; cited from earlier work
LAP = system: LAP; set-up: method as in S-inhibitor; details: ref S-inhibitor; cited from earlier work
PuSA = system: PuSA; set-up: method as in S-inhibitor; details: ref S-inhibitor; cited from earlier work
HCV polymerase = molecular target: HCV polymerase; set-up: method as in S-inhibitor; details: ref S-inhibitor; cited from earlier work
Endothelin A (ETA) = system: Endothelin A (ETA); set-up: method as in S-inhibitor; details: ref S-inhibitor; cited from earlier work
MEK5 = system: MEK5; set-up: method as in S-inhibitor; details: ref S-inhibitor; cited from earlier work
[5] = system: Toxoplasma gondii RH-2F tachyzoites; details: preliminary screen, mean
[6] = read-out: Parasite inhibition (%) mean, preliminary screen, mean
[7] = read-out: Parasite inhibition (%) mean

## CC1(C)CCC(c2ccc(Cl)cc2)=C(CN2CCN(c3ccc(C(=O)NS(=O)(=O)c4ccc(N[C@H](CCN5CCOCC5)CSc5ccccc5)c(S(=O)(=O)C(F)(F)F)c4)cc3)CC2)C1 [ABT-263 (Navitoclax)]
Bcl-w
  Ki: ≤ 1 nM
[1]; [6]
  inhibition of growth at 5 µM: 33.5%

## CCN1CCN(Cc2ccc(-c3cc4c(N[C@H](C)c5ccccc5)ncnc4[nH]3)cc2)CC1 [AEE788 (NVP-AEE788)]
Flt
  IC50: 59 nM
VEGFR2
  IC50: 77 nM
EGFR
  IC50: 2 nM
HER2/ErbB2
  IC50: 6 nM
[1]; [6]
  inhibition of growth at 5 µM: -2.1%

## CN1CCCCC1Cn1cc(C(=O)c2cc([N+](=O)[O-])ccc2I)c2ccccc21 (stereo not shown) [AM-1241]
CB2
  Ki: 3.4 nM
[1]; [6]
  inhibition of growth at 5 µM: -8.8%

## O=C(NC1CCNCC1)c1[nH]ncc1NC(=O)c1c(Cl)cccc1Cl [AT7519]
CDK5/p35
  IC50: 13 nM
CDK6/Cyclin D3
  IC50: 170 nM
CDK4/cyclin D1
  IC50: […]
[1]; [6]
  inhibition of growth at 5 µM: -11.7%
CDK1/cyclin B
  IC50: […]
CDK3/Cyclin E
  IC50: 360 nM

## Cn1cnc2c(F)c(Nc3ccc(Br)cc3Cl)c(C(=O)NOCCO)cc21 [AZD6244 (Selumetinib)]
MEK1
  IC50: 14 nM
[1]; [6]
  inhibition of growth at 5 µM: 0.6%

## COc1ccc(C2(C#N)CCC(C(=O)O)CC2)cc1OC1CCCC1 (stereo not shown) [Cilomilast (SB-207499)]
LPDE4
  IC50: 100 nM
HPDE4
  IC50: 120 nM
[1]; [6]
  inhibition of growth at 5 µM: 65.2%

## COC(=O)N[C@H](C(=O)N1CCC[C@H]1c1ncc(-c2ccc(-c3ccc(-c4cnc([C@@H]5CCCN5C(=O)[C@@H](NC(=O)OC)C(C)C)[nH]4)cc3)cc2)[nH]1)C(C)C [Daclatasvir (BMS-790052)]
HCV NS5A
  EC50: 0.009 to 0.05 nM
[1]; [6]
  inhibition of growth at 5 µM: 3.9%

## CCOc1ccc(Cc2cc([C@@H]3O[C@H](CO)[C@@H](O)[C@H](O)[C@H]3O)ccc2Cl)cc1 [Dapagliflozin]
hSGLT2
  EC50: 1.1 nM
[1]; [7]
  inhibition of growth at 5 µM: 1.9%

## CC1=C(C(=O)Nc2cc3cn[nH]c3cc2F)C(c2ccc(C(F)(F)F)cc2)CC(=O)N1 (stereo not shown) [GSK429286A]
ROCK2
  IC50: 63 nM
[1]; [6]
  inhibition of growth at 5 µM: 0.9%
ROCK1
  IC50: 14 nM

## COc1ccc(S(=O)(=O)N(C(C)=O)c2ccccc2/C=C/c2cc[n+]([O-])cc2)cc1 [HMN-214]
[2]
  IC50: 118 nM
[1]; [6]
  inhibition of growth at 5 µM: -11.6%

## CCS(=O)(=O)Nc1ccc2c(c1)/C(=C(/Nc1ccc(CN3CCCCC3)cc1)c1ccccc1)C(=O)N2 [Hesperadin]
Aurora B
  IC50: 250 nM
[3]
  IC50: 40 nM
[1]; [6]
  inhibition of growth at 5 µM: 66.8%

## CC(C)(C)Cn1c(N)nc2ccc(-c3[nH]c(C(C)(C)C)nc3-c3ccc(F)cc3)nc21 [LY2228820]
p38 MAPK
  IC50: 7 nM
[1]; [6]
  inhibition of growth at 5 µM: -12.7%

## C[C@@]1(c2cc(-c3cncnc3)c(F)cc2F)CCSC(N)=N1 [LY2811376]
BACE1
  IC50: […]
[1]; [6]
  inhibition of growth at 5 µM: -19.7%
Aβ secretion
  EC50: ~300 nM

## CCNC(=O)c1cc2c(-c3cc(OCCN4CCCC4)c(Cl)cc3Cl)nc(N)nc2s1 [NVP-BEP800]
[1]; [7]
  inhibition of growth at 5 µM: 0.7%
HSP90β
  IC50: 58 nM

## CCc1cccc(CC)c1NC(=O)N1Cc2n[nH]c(NC(=O)c3ccc(N4CCN(C)CC4)cc3)c2C1 [PHA-680632]
Aurora B
  IC50: 135 nM
In vitro
  viability at 72 h: 45.2%
Aurora C
  IC50: 120 nM
[1]; [6]
  inhibition of growth at 5 µM: 88.8%

## CC(C)CC(=O)Nc1[nH]nc2c1CN(C(=O)C1CCN(C)CC1)C2(C)C [PHA-793887]
CDK5
  IC50: 5 nM
CDK2
  IC50: 8 nM
CDK7
  IC50: 10 nM
[1]; [6]
  inhibition of growth at 5 µM: 0.6%

## CC(=O)Nc1nc(C)c(-c2ccc(Cl)c(S(=O)(=O)NCCO)c2)s1 [PIK-93]
PI3Kγ
  IC50: […]
[1]; [7]
  inhibition of growth at 5 µM: 1.5%

## C#CCC(Cc1cnc2nc(N)nc(N)c2n1)c1ccc(C(=O)N[C@@H](CCC(=O)O)C(=O)O)cc1 (stereo partly shown) [Pralatrexate (Folotyn)]
Some cell lines
  IC50: < 300 nM
[1]; [6]
  inhibition of growth at 5 µM: 20.4%

## C[C@H](NCc1ccc(OCc2cccc(F)c2)cc1)C(N)=O [Safinamide Mesylate (FCE28073)]
MAO-B
  IC50: […]
[1]; [6]
  inhibition of growth at 5 µM: 5.9%

## CN1CCN(CCOc2cc(OC3CCOCC3)c3c(Nc4c(Cl)ccc5c4OCO5)ncnc3c2)CC1 [Saracatinib (AZD0530)]
[1]; [6]
  inhibition of growth at 5 µM: 32.6%
v-Abl
  IC50: 30 nM

## Cc1[nH]c(/C=C2\C(=O)Nc3ccccc32)c(C)c1CCC(=O)O [TSU-68 (SU6668)]
Flk-1/KDR
  Ki: 2100 nM
PDGFRβ
  Ki: 8 nM
[1]; [6]
  inhibition of growth at 5 µM: 2.8%

## CCC[C@H](NC(=O)[C@H]1[C@H]2CCC[C@H]2CN1C(=O)[C@@H](NC(=O)[C@@H](NC(=O)c1cnccn1)C1CCCCC1)C(C)(C)C)C(=O)C(=O)NC1CC1 [Telaprevir (VX-950)]
[1]; [6]
  inhibition of growth at 5 µM: 4.4%
[4]
  IC50: 350 nM

## O=C(NCc1ccccc1)c1csc(Nc2ccncn2)n1 [Thiazovivin]
ROCK
  IC50: ~500 nM
[1]; [6]
  inhibition of growth at 5 µM: -0.7%

## CC(C)C[C@@H](C(=O)N[C@H](C(=O)OC1CCCC1)c1ccccc1)[C@H](O)C(=O)NO [Tosedostat (CHR2797)]
In vitro
  viability at 72 h: 88.8%
Aminopeptidase N
  IC50: 220 nM
LAP
  IC50: 100 nM
[1]; [6]
  inhibition of growth at 5 µM: 85.6%
PuSA
  IC50: 150 nM

## CC(C)(C)C#Cc1cc(N(C(=O)[C@H]2CC[C@H](C)CC2)[C@H]2CC[C@H](O)CC2)c(C(=O)O)s1 [VX-222]
HCV polymerase
  IC50: 940 to 1200 nM
[1]; [6]
  inhibition of growth at 5 µM: 9.6%

## COc1nc(C)cnc1NS(=O)(=O)c1cccnc1-c1ccc(-c2nnco2)cc1 [Zibotentan (ZD4054)]
Endothelin A (ETA)
  IC50: 21 nM
[1]; [6]
  inhibition of growth at 5 µM: 1.8%

## BIX 02188
MEK5
  IC50: 4.3 nM
[5]
  Parasite inhibition (%) mean: 13.7%

From publication PMC7216583 (Parasites & Vectors, 2020)
